Laboratory results reported in patent US20200290950A1, “ALKAMIDE COMPOUNDS AND USES THEREOF” (NORTH CAROLINA STATE UNIVERSITY, priority 2017, published 2020).

Legend:
RBL-2H3 cells [1] = assay: Fluo-4 calcium assay, RBL-2H3 cells (Example 1); assay type: cell-based, rat
Procedure: FIGS. 3A-3H. A15 inhibits calcium influx in RBL-2H3 cells and BMMCs. RBL-2H3 cells (FIGS. 3A-3D) and BMMCs (FIGS. 3E-3H) were plated and incubated overnight prior to treatments. For DNP-BSA treatments, overnight incubation also included 1 μg/mL IgE anti-DNP. Prior to stimulation, cells were washed and loaded with the fluorescent, calcium-sensitive dye fluo-4 AM using the Fluo-4 AM Direct™ Calcium Assay Kit and fluorescence was measured on a microplate reader. Calcium influx was triggered in all experiments using either 1 μM A23187 or 50 ng/mL DNP-BSA, as indicated. Bar graphs represent the means±SEM of the Δ in RFU's at 1 min post-A23187- or DNP-BSA-stimulation from 3 independent experiments (FIGS. 3B, 3D, 3F, 3H). Statistical analysis was performed using a one-way ANOVA with Dunnett's post-hoc test, *p<0.05, **p<0.01, ***p<0.001.
FIG. 9. A15 inhibits calcium influx in RBL-2H3 cells. Prior to stimulation, cells were washed and loaded with the fluorescent, calcium-sensitive dye fluo-4 AM using the Fluo-4 AM Direct™ Calcium Assay Kit. Cells were treated with 100 μM A15 (D, E, F), 0.25% ethanol only (vehicle) (A, B, C), 1 μM A23187 (G, H, I), and 100 μM A15 in combination with 1 μM A23187 (J, K, L) as indicated. Images were acquired at 30, 60, and 120 seconds, post-stimulation. Images are representative of several experiments.
(§1) RBL-2H3, BMMC, RAW 264.7, or Jurkat cells were plated in clear-bottom, black, 96-well plates (BioExpress, Kaysville, Utah) and incubated overnight with media only or media containing IgE anti-DNP. Cells were loaded with the calcium-sensitive dye fluo-4 AM using the Fluo-4 Direct™ Calcium Assay Kit (Thermo Fisher Scientific) according to the manufacturer's instructions by incubating at 37° C. for 30 min followed by 30 min at room temperature. Prior to stimulation, baseline fluorescent readings were measured from triplicate wells in 5 s intervals for 1 min using a Synergy HT microplate reader with 485/20 nm excitation and 528/20 nm emission filters. Cells were then treated with either 1 μM A23187 or 50 ng/mL DNP-BSA prepared in calcium- and magnesium-containing or calcium- and magnesium-free HBSS with 20 mM HEPES, and fluorescence was measured in 10 s intervals for 2 min. The final concentration of ethanol was 0.25% in these assays. The average baseline fluorescence of each well was subtracted from the stimulated fluorescent values to calculate the change (Δ) in RFU's and graphed as shown.
Cells loaded with fluo-4 were treated and observed with an Axioskop 2 microscope (Zeiss, Oberkochen, Germany) using a fluorescent illuminator HXP-120 light source and images were acquired at 30, 60, or 120 sec after stimulation with a AxioCam MRc5 camera (Zeiss) and AxioVision software (Zeiss).

RBL-2H3 cells [2] = assay: β-Hexosaminidase release assay (Example 3); assay type: cell-based, rat
Procedure: FIGS. 21A-21D. The inhibition of degranulation is dependent on the length of the alkamide fatty acid chain. RBL-2H3 cells were plated overnight, stimulated with 1 μM A23187 (FIG. 21A) or 5 ng/mL DNP-BSA (FIG. 21B) for 1 h in the absence or presence of each compound. Graphs display the mean percent β-hex release. Data are presented as the mean of 4 experiments. Percent inhibition of degranulation of A23187 (FIG. 21C) or DNP-BSA (FIG. 21D) using data from A and B, respectively. *P<0.05, **P<0.01, ***P<0.001, one-way ANOVA with Dunnett's post hoc test compared to vehicle (A, B) or A15 (C, D).
RBL-2H3 cells (1.0×10^5 cells) were incubated with or without 0.1 μg/mL of IgE-DNP overnight in a 96 well plate at 37° C. with 5% CO2. The cells were washed with Tyrode's buffer and assayed with few modifications (Kuehn, Radinger, & Gilfillan, 2010). Briefly, IgE-DNP sensitized cells were stimulated 1 hour with 5 ng/mL of DNP-BSA in the absence or presence of each compound and incubated at 37° C. with 5% CO2. For experiments using only A23187 as the stimulant, cells were washed with Tyrode's buffer and stimulated 1 hour with 1 μM A23187 in the absence or presence of each compound and incubated at 37° C. with 5% CO2. The stimulated cells were centrifuged at 1200×g for 5 minutes. The supernatant or cell lysate (30 μL) was incubated with 3.4 mg/mL of p-NAG (10 μL) for 1 hour at 37° C. The reaction was terminated by addition of 0.2 M sodium carbonate (pH 10) and the absorbance was read at OD405 nm on a BioTek Synergy HT microplate reader. The total 3-hexosaminidase released from the cell was calculated as the difference between the OD of the supernatant and blank plus the difference between the OD of the lysate and blank. The percent β-hexosaminidase released from the cell was calculated as the difference between the OD of the supernatant and blank divided by the total β-hexosaminidase released from the cell multiplied by 100: ODsupernatant−ODblank/[(ODlysate−ODblank)+(ODsupernatant−ODblank)]*100.

Jurkat T cells = assay: Fluo-4 calcium assay, Jurkat cells; assay type: cell-based; details: 1 μM A23187, 100 μM A15, at 1 min
Procedure: FIGS. 4A-4D. A15 inhibits A23187-stimulated calcium influx in RAW 264.7 and Jurkat cells. RAW 264.7 (FIG. 4A-4B) or Jurkat cells (FIG. 4C-4D) were loaded with fluo-4 AM using the Fluo-4 AM Direct™ Calcium Assay Kit and fluorescence was measured on a microplate reader. Cells were stimulated with 1 μM A23187 in combination with vehicle only or 100 μM A15. Bar graphs represent the means±SEM of the Δ in RFU's at 1 min post-A23187 stimulation from 3 independent experiments. Statistical analysis was performed using an unpaired Student's t-test, *p<0.05.
as §1, with “Cells were loaded with the calcium-sensitive dye fluo-4 AM using the Fluo-4 Direct™ Calcium Assay Kit (Thermo Fisher Scientific) according to the manufacturer's instructions by incubating at 37° C. for 30 min followed by 30 min at room temperature.” left out, “The final concentration of ethanol was 0.25% in these assays.” left out

Compound: CCCCCCC/C=C/C=C/C(=O)NCC(C)C [A15, (2E,4E)-N-Isobutyldodeca-2,4-dienamide]
- calcium response (RBL-2H3 cells [1]; RBL-2H3 cells treated with IgE anti-DNP and DNP-BSA): blocked the calcium response
- inhibition at 100 µM (RBL-2H3 cells [1]; Rattus norvegicus, 1 min, A23187-treated RBL-2H3 cells, 100 μM, 1 min post-stimulation, read-out: inhibition of rise in intracellular calcium): 83.2%
- constitutive fluorescence in unstimulated cells, compared to vehicle (RBL-2H3 cells [1]; unstimulated RBL-2H3 cells, 100 μM, pixel intensity, n=5 fields): did not cause a significant change in the level of constitutive fluorescence
- percent inhibition of degranulation (RBL-2H3 cells [2]; 5 ng/mL DNP-BSA, 1 hour): 27%
- percent inhibition of degranulation (RBL-2H3 cells [2]; 1 μM A23187, 1 hour): 47%
- suppression of calcium influx (Jurkat T cells): 43.6%
